Laboratory results: patent US20260015574A1, “METHODS FOR SHORTENING LAG PHASE DURATION IN MICROORGANISMS” (YEDA RESEARCH AND DEVELOPMENT CO. LTD., priority 2022, published 2026)

How the values were obtained:
[1] = test system: P. inhibens; assay: Lag phase metabolomics with 13C-labeled DMSP; assay type: cell-based, Phaeobacter inhibens; settings: 50 μM 13C-labeled DMSP, two hours, LC/MS
Procedure: DMSP was synthesized in which both S-methyl groups are ^13C-labeled, using the protocol of Wirth and Whitman (2018). Freshly initiated P. inhibens cultures (OD 0.01, ASW+CNS medium) were treated with 50 μM 13C-labeled DMSP and compared to reference cultures with non-labeled DMSP. Bacterial cells were harvested and extracted two hours after adding DMSP. The incorporation of the 13C label was analyzed by LC/MS (FIG. 12).
To further elucidate the fate of methyl groups, the inventors analyzed the transcriptome of DMSP-treated P. inhibens bacteria during the lag phase, and compared it to untreated control cultures. […] To further establish that DMSP methyl groups are assimilated via the methionine cycle, the inventors measured the methionine synthesis activity in protein crude extracts of stationary bacterial cells, using a biochemical assay followed by LC/MS analysis. […] Taken together, the inventors established that DMSP methyl groups are assimilated during the lag phase via the methionine cycle.

[2] = test system: Phaeobacter inhibens DSM 17395; assay: Growth / lag phase shortening assay of P. inhibens pure cultures with glucose; assay type: cell-based; settings: for lag phase shortening effect (Δlag time) of panel compounds: 1 mM glucose and 2 μM of the respective compound
Procedure: ASW was adjusted to pH 8 using HCl. If not otherwise stated, the medium was further supplemented with a source of carbon (glucose, 1 mM), nitrogen (NH4Cl, 5 mM), and sulfur (Na2SO4, 33 mM), referred to as ASW+CNS. […] A 96-well Tecan Infinite M Plex plate reader was used for high-resolution monitoring of bacterial growth dynamics at 30° C. An ImageStreamX Flow Imager system (Amnis) was used to characterize bacterial populations during the lag phase (FIG. 6). The growth of bacteria in co-culture with algae was monitored by counting colony forming units (CFU) on ½ YTSS agar plates. The growth of algae was monitored with a CellStream flow cytometer (Merck, Darmstadt, Germany).
To test whether methylated compounds affect the growth of bacteria, the inventors cultivated bacterial pure cultures with glucose as main growth substrate and supplemented the medium with the well-studied methylated compound dimethylsulfoniopropionate (DMSP). DMSP that is naturally produced by microalgae and found in detectable levels in seawater, is known to be metabolized by various bacteria. […] To quantify the lag phase shortening effect, the inventors calculated the Δlag time, which is the time difference between the commence of exponential growth in control cultures compared to treated cultures (FIG. 5B).
To reflect the natural low bacterial abundance in the oligotrophic ocean with low microalgal productivity, the current bacterial growth experiments were routinely initiated with an optical density (OD) of 0.00001. Such low initial ODs challenge the detection of cell divisions that occur prior to reaching an OD of at least 0.001, which is the theoretical limit of detection. To determine the actual length of the lag phase, the inventors analyzed bacterial cultures using imagining flow cytometry.

[3] = test system: E. coli; assay: Lag phase shortening in E. coli; assay type: cell-based, Escherichia coli
From the text: (§1) To explore whether lag phase shortening is a general mechanism among bacteria, the inventors tested the effect of methylated compounds in bacteria with different lifestyles. […] Since methylated compounds are a hallmark of photosynthesizing organisms, the inventors next tested a variety of bacteria that are plant-associated. […] Finally, to establish the prevalence of lag phase shortening among bacteria, the inventors tested the model bacterium E. coli. This bacterium is not commonly found associated with photosynthesizing organisms, and thus, is unlikely to respond to algal metabolites. […] The synchrony between specific compounds and different groups of bacteria may reflect the natural context […].

[4] = test system: opportunistic pathogens, found in both plants and humans; assay: Lag phase shortening in opportunistic pathogens found in plants and humans; assay type: cell-based
From the text: as §1

[5] = test system: Various marine bacteria; assay: Lag phase shortening in various marine bacteria; assay type: cell-based; settings: minute amounts of compound
Procedure: (§2) The bacterial strain Phaeobacter inhibens DSM 17395 was purchased from the German collection of microorganisms and cell cultures (DSMZ, Braunschweig, Germany) and stored at −80° C. with 20% glycerol. Routine cultivation of P. inhibens was conducted at 30° C. in artificial seawater medium (ASW) based on Goyet and Poisson (1989). The ASW medium contained mineral salts (NaCl, 409.41 mM; Na2SO4, 28.22 mM; KCl, 9.08 mM; KBr, 0.82 mM; NaF, 0.07 mM; Na2CO3, 0.20 mM; NaHCO3, 2 mM; MgCl2, 50.66 mM; SrCl2, 0.09 mM), L1 vitamins (thiamine HCl, 100 μg/L; biotin, 0.5 μg/L; vitamin B12, […]), L1 trace elements (Na2EDTA·2H2O, 4.36 mg/L; FeCl3·6H2O, 3.15 mg/L; MnCl2·4H2O, 178.1 μg/L; ZnSO4·7H2O, 23.0 μg/L; CoCl2·6H2O, 11.9 μg/L; CuSO4·5H2O, 2.5 μg/L; Na2MoO4·2H2O, 19.9 μg/L; H2SeO3, 1.29 μg/L; NiSO4·6H2O, 2.63 μg/L; Na3 VO4, 1.84 μg/L; K2CrO4, 1.94 μg/L), and L1 nutrients (NaNO3, 882 μM; NaH2PO4, 36.22 μM). ASW was adjusted to pH 8 using HCl. […] A 96-well Tecan Infinite M Plex plate reader was used for high-resolution monitoring of bacterial growth dynamics at 30° C. […] The growth of bacteria in co-culture with algae was monitored by counting colony forming units (CFU) on ½ YTSS agar plates. The growth of algae was monitored with a CellStream flow cytometer (Merck, Darmstadt, Germany). […]

[6] = test system: marine bacterium Vibrio sp.; assay: Lag phase shortening in Vibrio sp.; assay type: cell-based; settings: 2 μM compound
Procedure: as §2

[7] = test system: bacteria that are plant-associated; assay: Lag phase shortening in plant-associated bacteria; assay type: cell-based
From the text: as §1

[8] = test system: Bacillus subtilis strain 168; assay: Lag phase shortening in B. subtilis; assay type: cell-based
Procedure: The bacterial strain Phaeobacter inhibens DSM 17395 was purchased from the German collection of microorganisms and cell cultures (DSMZ, Braunschweig, Germany) and stored at −80° C. with 20% glycerol. Routine cultivation of P. inhibens was conducted at 30° C. in artificial seawater medium (ASW) based on Goyet and Poisson (1989). The ASW medium contained mineral salts (NaCl, 409.41 mM; Na2SO4, 28.22 mM; KCl, 9.08 mM; KBr, 0.82 mM; NaF, 0.07 mM; Na2CO3, 0.20 mM; NaHCO3, 2 mM; MgCl2, 50.66 mM; SrCl2, 0.09 mM), L1 vitamins (thiamine HCl, 100 μg/L; biotin, 0.5 μg/L; vitamin B12, […]), L1 trace elements (Na2EDTA·2H2O, 4.36 mg/L; FeCl3·6H2O, 3.15 mg/L; MnCl2·4H2O, 178.1 μg/L; ZnSO4·7H2O, 23.0 μg/L; CoCl2·6H2O, 11.9 μg/L; CuSO4·5H2O, 2.5 μg/L; Na2MoO4·2H2O, 19.9 μg/L; H2SeO3, 1.29 μg/L; NiSO4·6H2O, 2.63 μg/L; Na3 VO4, 1.84 μg/L; K2CrO4, 1.94 μg/L), and L1 nutrients (NaNO3, 882 μM; NaH2PO4, 36.22 μM). ASW was adjusted to pH 8 using HCl. If not otherwise stated, the medium was further supplemented with a source of carbon (glucose, 1 mM), nitrogen (NH4Cl, 5 mM), and sulfur (Na2SO4, 33 mM), referred to as ASW+CNS. Methylated effector compounds (e.g., donors) were administered at 1 or 2 μM in routine assays, or in higher concentrations as stated. The bacterium Bacillus subtilis strain 168 was cultivated in M9 Medium (Na2HPO4, 6 g/L; KH2PO4, 3 g/L; NaCl, 0.5 g/L; NH4CL, 1 g/L; CaCl2), 100 µM; MgSO4, 1 mM; Thiamine, 5 mg/L; EDTA, 50 mg/L; FcCl3, 4.98 mg/L; ZnCl2, 0.84 mg/L; CuCl2·2H2O, 0.13 mg/L; CoCl2·6H2O, 0.1 mg/L; H3BO3, 0.1 mg/L; MnCl2·4H2O, 0.016 mg/L; pH 7.1) with 20 mM glucose. Other bacterial strains tested for lag phase shortening were isolated from the marine environment (Despotović et al., 2021), and cultivated in ASW+CNS. A 96-well Tecan Infinite M Plex plate reader was used for high-resolution monitoring of bacterial growth dynamics at 30° C. […] The growth of bacteria in co-culture with algae was monitored by counting colony forming units (CFU) on ½ YTSS agar plates. The growth of algae was monitored with a CellStream flow cytometer (Merck, Darmstadt, Germany). […]

[9] = test system: P. inhibens mttB1 KO mutant; assay: Lag phase shortening in mttB1 knockout mutant; assay type: cell-based, Phaeobacter inhibens
Procedure: (§3) For creation of P. inhibens knockout cells, ˜1,000 bp regions upstream and downstream of the gene of interest were amplified by PCR (Phusion High-Fidelity DNA polymerase, Thermo Scientific), using primers that added homologous regions to gentamycin or kanamycin resistance markers. The fragments were assembled and cloned into the TOPOII vector (Invitrogen) using restriction-free cloning (Peleg Y. & Unger T., 2014), generating a knockout (KO) plasmid. P. inhibens electrocompetent cells (300 μl) were transformed with 10 μg of the constructed KO plasmid by a pulse of 1.8 kV (Bio Rad). Cells were selected on ½YTSS agar plates containing 30 μg/ml gentamycin or 150 μg/ml kanamycin. Successful knockouts in single cell clones were verified by PCR and sanger sequencing.
The inventors further sought to better understand why methyl groups shorten the bacterial lag phase. The inventors list at least three cellular scenarios which could explain the effect that methylated compounds have on the lag phase: (1) methyl groups might be a limiting resource; (2) methyl groups might act as a signal that triggers a cellular cascade, which culminates in lag phase shortening; and (3) methylated compounds could accumulate intracellularly and function as osmoprotectants and antioxidants. […]

[10] = test system: P. inhibens Δbmt mutant; assay: Growth and lag phase shortening in Δbmt mutant; assay type: cell-based, Phaeobacter inhibens; settings: minimal media, addition of 200 μM methionine
Procedure: as §3

In the case of `[13CH3][S+]([13CH3])CCC(=O)[O-]` [13C-labeled DMSP], the “metabolic fate of DMSP methyl groups (13C label incorporation)” value [1] is reported as “converted into SAM”.
For `C[S+](C)CC(=O)[O-]` [DMSA, dimethylsulfonioacetate], the “lag phase shortening effect (Δlag time) of panel compounds” value (“lag phase shortening effect (Δlag time)” below) [2] was “most pronounced”.
In the case of `C[S+](C)CC[C@H](N)C(=O)O` [SMM, S-methyl-L-methionine], the Δlag time ([3]; E. coli BL21, 2 μM SMM (FIG. 17C)) is reported as “Δlag time of one hour”, the lag phase shortening ([3]; modified strains BL21(DE3) and DH5α) is reported as “this effect was observed” and the lag phase shortening ([3]; wild-type strain K12) is reported as “only showed this effect upon addition of greater SMM concentrations”. The lag phase shortening [4] was “shorten their lag phase”.
`COc1cc(Cc2cnc(N)nc2N)cc(OC)c1OC` [Trimethoprim, reference compound] was tested, and the “growth of P. inhibens in the presence of the THF inhibitor” value [2] was “cannot grow unless the culture is supplemented with nucleotides”.
For `C[N+](C)(C)CC(=O)O` [betaine, glycine betaine], the lag phase shortening [5] was “marked lag phase shortening”, the lag phase shortening [6] was “induction of the lag phase shortening” and the lag phase shortening [7] was “significant shortening of the lag phase”. For the same molecule, the “lag phase shortening effect (Δlag time)” value [2] was “most pronounced”, the lag phase shortening ([8]; 2 μM compound) was “induction of the lag phase shortening” and the Δlag time ([8]; FIG. 17B) was 7 h. The lag phase shortening ([3]; treatment with algal metabolites) was “did not shorten the lag phase” and the lag phase shortening [9] was “does not shorten the lag phase”.
`C[N+](C)(C)CC(O)CC(=O)[O-]` (centres unmarked) [carnitine] was tested, and the “lag phase shortening effect (Δlag time)” value [2] was “most pronounced”.
With `C[S+](C)CCC(O)CC(=O)[O-]` (centres unmarked) [gonyol] the “lag phase shortening effect (Δlag time)” value [2] was “most pronounced”.
With `CSCC[C@H](N)C(=O)O` [methionine] the “growth of the Δbmt mutant” value [10] was “fully recovered” and the “lag phase shortening effect (Δlag time)” value [2] was “prolonged the lag phase”.
For `C[N+]1(C)CCC[C@H]1C(=O)[O-]` [stachydrine], the “lag phase shortening effect (Δlag time)” value [2] was “most pronounced”.
